Experiments:
Test in all cases: NCI 60 cell line screen
Assay type in all cases: cell-based
NCI-H460 = details: NCI-H460, Non-Small Cell Lung Cancer; single concentration 10^−5 M
Procedure: (§1) The cytotoxic activity of nortopsintin analogs (4a-4j) was determined by the national cancer institute (NCI, Bethesda, Maryland, USA) against 60 different cancer cell lines at a single concentration of (10^-5 M). For the determination of IC50 value, we used MTT assay kit (Sigma) according to the manufacturer's protocol. HCT-116 cells were seeded into a 96-well plate at a concentration of 20,000 cells/well. After 24 h, the media was aspirated and replaced with serum-free media containing serial dilutions of the 4i compound. […] The percentage of cytotoxicity was calculated using the following equation: % Cytotoxicity = [1 - ([…])] × 100.

OVCAR-4 = details: OVCAR-4, Ovarian Cancer; single concentration 10^−5 M
Procedure: as §1

HCT-15 = details: HCT-15, Colon Cancer; single concentration 10^−5 M
Procedure: as §1

HCC-2998 = details: HCC-2998, Colon Cancer; single concentration 10^−5 M
Procedure: as §1

SNB-19 = details: SNB-19, CNS Cancer; single concentration 10^−5 M
Procedure: as §1

SW-620 = details: SW-620, Colon Cancer; single concentration 10^−5 M
Procedure: as §1

KM12 = details: KM12, Colon Cancer; single concentration 10^−5 M
Procedure: as §1

NCI/ADR-RES = details: Ovarian Cancer, single concentration 10^−5 M
Procedure: as §1

A498 = details: A498, Renal Cancer; single concentration 10^−5 M
Procedure: as §1

LOX IMVI = details: Melanoma, single concentration 10^−5 M
Procedure: as §1

SK-MEL-28 = details: SK-MEL-28, Melanoma; single concentration 10^−5 M
Procedure: as §1

BT-549 = details: BT-549, Breast Cancer; single concentration 10^−5 M
Procedure: as §1

SR = details: Leukemia, single concentration 10^−5 M
Procedure: as §1

TK-10 = details: TK-10, Renal Cancer; single concentration 10^−5 M
Procedure: as §1

PC-3 = details: PC-3, Prostate Cancer; single concentration 10^−5 M
Procedure: as §1

MALME-3M = details: Melanoma, single concentration 10^−5 M
Procedure: as §1

CCRF-CEM = details: Leukemia, single concentration 10^−5 M
Procedure: as §1

UACC-257 = details: UACC-257, Melanoma; single concentration 10^−5 M
Procedure: as §1

T-47D = details: Breast Cancer, single concentration 10^−5 M
Procedure: as §1

UACC-62 = details: UACC-62, Melanoma; single concentration 10^−5 M
Procedure: as §1

MCF7 = details: MCF7, Breast Cancer; single concentration 10^−5 M
Procedure: as §1

DU-145 = details: DU-145, Prostate Cancer; single concentration 10^−5 M
Procedure: as §1

NCI-H23 = details: NCI-H23, Non-Small Cell Lung Cancer; single concentration 10^−5 M
Procedure: as §1

OVCAR-3 = details: OVCAR-3, Ovarian Cancer; single concentration 10^−5 M
Procedure: as §1

EKVX = details: Non-Small Cell Lung Cancer, single concentration 10^−5 M
Procedure: as §1

HS 578T = details: Breast Cancer, single concentration 10^−5 M
Procedure: as §1

ACHN = details: Renal Cancer, single concentration 10^−5 M
Procedure: as §1

NCI-H522 = details: NCI-H522, Non-Small Cell Lung Cancer; single concentration 10^−5 M
Procedure: as §1

NCI-H226 = details: NCI-H226, Non-Small Cell Lung Cancer; single concentration 10^−5 M
Procedure: as §1

SNB-75 = details: SNB-75, CNS Cancer; single concentration 10^−5 M
Procedure: as §1

OVCAR-5 = details: OVCAR-5, Ovarian Cancer; single concentration 10^−5 M
Procedure: as §1

SN12C = details: Renal Cancer, single concentration 10^−5 M
Procedure: as §1

IGROV1 = details: IGROV1, Ovarian Cancer; single concentration 10^−5 M
Procedure: as §1

COLO205 = details: COLO205, Colon Cancer; single concentration 10^−5 M
Procedure: as §1

M14 = details: M14, Melanoma; single concentration 10^−5 M
Procedure: as §1

UO-31 = details: UO-31, Renal Cancer; single concentration 10^−5 M
Procedure: as §1

HOP-92 = details: HOP-92, Non-Small Cell Lung Cancer; single concentration 10^−5 M
Procedure: as §1

CAKI-1 = details: CAKI-1, Renal Cancer; single concentration 10^−5 M
Procedure: as §1

| SMILES | Growth % (NCI-H460) [%] | Growth % (OVCAR-4) [%] | Growth % (HCT-15) [%] | Growth % (HCC-2998) [%] | Growth % (SNB-19) [%] | Growth % (SW-620) [%] | Growth % (KM12) [%] | Growth % (NCI/ADR-RES) [%] | Growth % (A498) [%] | Growth % (LOX IMVI) [%] | Growth % (SK-MEL-28) [%] | Growth % (BT-549) [%] | Growth % (SR) [%] | Growth % (TK-10) [%] | Growth % (PC-3) [%] | Growth % (MALME-3M) [%] | Growth % (CCRF-CEM) [%] | Growth % (UACC-257) [%] | Growth % (T-47D) [%] | Growth % (UACC-62) [%] | other results |
| --- | --- | --- | --- | --- | --- | --- | --- | --- | --- | --- | --- | --- | --- | --- | --- | --- | --- | --- | --- | --- | --- |
| N#Cc1c(-c2ccc(Br)cc2)cc(-c2c[nH]c3ccccc23)nc1-c1c[nH]c2ccccc12 [4b] | 106.47 | 102.16 | 97.86 | 114.86 | 98.35 | 105.18 | 99.86 | 99.61 | 95.35 | 99.48 | 112.22 | 103.55 | 94.65 | 146.78 | 93.93 | 103.25 | 102.80 | 107.82 | 85.37 | 94.51 | Growth % (MCF7): 85.19%; Growth % (DU-145): 107.37%; Growth % (NCI-H23): 93.93%; Growth % (OVCAR-3): 102.43%; Growth % (EKVX): 85.89%; Growth % (HS 578T): 97.14%; Growth % (ACHN): 99.45%; Growth % (NCI-H522): 94.73%; Growth % (NCI-H226): 87.72%; Growth % (SNB-75): 91.48%; Growth % (OVCAR-5): 107.40%; Growth % (SN12C): 96.36%; Growth % (IGROV1): 73.65%; Growth % (COLO205): 111.43%; Growth % (M14): 102.89%; Growth % (UO-31): 71.05%; Growth % (HOP-92): 92.57%; Growth % (CAKI-1): 81.43% |
| COc1cc(-c2cc(-c3c[nH]c4ccccc34)nc(-c3c[nH]c4ccccc34)c2C#N)cc(OC)c1OC [4g] | 106.65 | 103.83 | 100.84 | 107.87 | 98.31 | 100.40 | 99.69 | 100.17 | 103.11 | 98.85 | 107.46 | 101.50 | 94.92 | 128.09 | 91.47 | 88.70 | 99.17 | 104.77 | 96.11 | 87.61 | Growth % (MCF7): 88.35%; Growth % (DU-145): 106.13%; Growth % (NCI-H23): 93.03%; Growth % (OVCAR-3): 102.73%; Growth % (EKVX): 87.27%; Growth % (HS 578T): 99.50%; Growth % (ACHN): 98.52%; Growth % (NCI-H522): 93.33%; Growth % (NCI-H226): 87.22%; Growth % (SNB-75): 77.85%; Growth % (OVCAR-5): 103.55%; Growth % (SN12C): 91.09%; Growth % (IGROV1): 74.20%; Growth % (COLO205): 106.57%; Growth % (M14): 98.40%; Growth % (UO-31): 65.92%; Growth % (HOP-92): 92.84%; Growth % (CAKI-1): 75.97% |
| N#Cc1c(-c2ccccc2)cc(-c2c[nH]c3ccccc23)nc1-c1c[nH]c2ccccc12 [4a] | 106.27 | 103.65 | 99.26 | 93.57 | 97.62 | 101.78 | 102.51 | 98.30 | 98.67 | 100.06 | 109.51 | 94.69 | 96.68 | 123.79 | 92.44 | 99.77 | 102.65 | 106.98 | 86.69 | 94.92 | Growth % (MCF7): 94.97%; Growth % (DU-145): 108.34%; Growth % (NCI-H23): 95.64%; Growth % (OVCAR-3): 109.77%; Growth % (EKVX): 83.07%; Growth % (HS 578T): 93.45%; Growth % (ACHN): 96.37%; Growth % (NCI-H522): 97.10%; Growth % (NCI-H226): 89.89%; Growth % (SNB-75): 81.21%; Growth % (OVCAR-5): 103.05%; Growth % (SN12C): 95.61%; Growth % (IGROV1): 82.09%; Growth % (COLO205): 108.26%; Growth % (M14): 100.81%; Growth % (UO-31): 68.28%; Growth % (HOP-92): 92.10%; Growth % (CAKI-1): 87.26% |
| N#Cc1c(-c2ccc([N+](=O)[O-])cc2)cc(-c2c[nH]c3ccccc23)nc1-c1c[nH]c2ccccc12 [4h] | 100.56 | 99.28 | 99.04 | 108.98 | 100.62 | 105.72 | 98.09 | 96.36 | 99.31 | 92.89 | 106.75 | 108.68 | 84.51 | 142.08 | 93.76 | 102.24 | 103.06 | 104.66 | 88.78 | 85.82 | Growth % (MCF7): 90.39%; Growth % (DU-145): 103.04%; Growth % (NCI-H23): 97.26%; Growth % (OVCAR-3): 97.76%; Growth % (EKVX): 82.20%; Growth % (HS 578T): 94.79%; Growth % (ACHN): 94.69%; Growth % (NCI-H522): 95.41%; Growth % (NCI-H226): 87.03%; Growth % (SNB-75): 90.31%; Growth % (OVCAR-5): 105.31%; Growth % (SN12C): 98.48%; Growth % (IGROV1): 81.21%; Growth % (COLO205): 114.22%; Growth % (M14): 97.98%; Growth % (UO-31): 70.38%; Growth % (HOP-92): 98.33%; Growth % (CAKI-1): 82.68% |

— paper PMC11530689, “Anti colorectal cancer activity and in silico studies of novel pyridine nortopsentin analog as cyclin dependent kinase 6 inhibitor” (Scientific Reports, 2024)
